Starred links: 1 amine or outer side, 2 acyl side, 3 side chain; linkers in the order of their positions; H or OH if unused. Positions of bridges follow the written chain, without caps; N, C: chain ends. Non-standard residues stand in square brackets, D forms with d. Residues, ends and D or L forms follow the SMILES beside them. Groups on a side chain read outwards from the residue. *: point of attachment. Glutaryl(2-isohexyl,5-OMe) = COC(=O)CCC(CCCC(C)C)C(=O)*; Phe(4-CF3) = N[C@@H](Cc1ccc(C(F)(F)F)cc1)C(=O)O; C18 diacid = O=C(O)CCCCCCCCCCCCCCCCC(=O)*; dDip = N[C@@H](C(=O)O)C(c1ccccc1)c1ccccc1; Lys(Me3) = C[N+](C)(C)CCCC[C@H](N)C(=O)O; Dip = N[C@H](C(=O)O)C(c1ccccc1)c1ccccc1; γGlu = O=C(O)[C@H](CCC(=O)[*:2])N[*:1]; Pro(3R-OH) = O=C(O)[C@H]1NCC[C@H]1O; Palmitoyl = CCCCCCCCCCCCCCCC(=O)*; NMeF = CN[C@@H](Cc1ccccc1)C(=O)O; β3hF = N[C@H](CC(=O)O)Cc1ccccc1; dPen = CC(C)(S)[C@@H](N)C(=O)O; NMeK = CN[C@@H](CCCCN)C(=O)O; Pen = CC(C)(S)[C@H](N)C(=O)O; dNMeK = CN[C@H](CCCCN)C(=O)O; Isovaleryl = CC(C)CC(=O)*; NMeC = CN[C@@H](CS)C(=O)O; hCys = N[C@@H](CCS)C(=O)O; Dap = NC[C@H](N)C(=O)O; AEEA = NCCOCCOCC(=O)O; Ahx = NCCCCCC(=O)O

One assay deals with T1, ferroportin (Homo sapiens, UniProt Q9NP59).
T1 sequence (Q9NP59 1-571): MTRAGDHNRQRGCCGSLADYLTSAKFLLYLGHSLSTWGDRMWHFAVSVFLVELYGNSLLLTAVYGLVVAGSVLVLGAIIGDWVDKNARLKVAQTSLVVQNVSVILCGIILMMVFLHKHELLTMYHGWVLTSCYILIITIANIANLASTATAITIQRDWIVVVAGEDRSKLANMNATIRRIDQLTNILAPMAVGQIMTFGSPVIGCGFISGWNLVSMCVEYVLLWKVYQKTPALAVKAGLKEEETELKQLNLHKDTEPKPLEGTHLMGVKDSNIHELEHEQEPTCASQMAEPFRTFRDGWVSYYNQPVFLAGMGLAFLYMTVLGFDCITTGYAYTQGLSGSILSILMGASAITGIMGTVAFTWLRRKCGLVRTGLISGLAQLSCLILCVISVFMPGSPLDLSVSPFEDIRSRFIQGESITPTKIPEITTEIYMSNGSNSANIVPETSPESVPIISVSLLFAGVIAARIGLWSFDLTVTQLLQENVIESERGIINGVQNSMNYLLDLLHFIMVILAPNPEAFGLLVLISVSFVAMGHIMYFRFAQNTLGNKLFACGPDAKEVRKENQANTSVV
The assay is described as follows: FPN activity assay: ferroportin-GFP internalization/degradation in HEK293 cells. On the set-up: expressed in transfected cells. It counts as cell-based. The following applies: Table 6E; ferroportin-GFP internalization/degradation, at least 18 hours incubation; read-out: FPN IC50. The protocol: Following internalization, the ferroporin protein is degraded.
A retro inverse peptide is a peptide with a reversed sequence in all D amino acids. An example is that Hy-Glu-Thr-His-NH2 becomes Hy-DHis-DThr-DGlu-NH2. The EC50 of these reference compounds for ferroportin internalization/degradation was determined according to the FPN activity assay described above. These peptides served as control standards.
Regarding `CC(C)CC(=O)N[C@@H](CCC(=O)O)C(=O)N[C@H](C(=O)N[C@@H](Cc1c[nH]cn1)C(=O)N[C@H](C(=O)N1CCC[C@H]1C(=O)N[C@H]1CSSC[C@@H](C(=O)N[C@@H](CCCC[N+](C)(C)C)C(=O)N[C@@H](C(N)=O)C(c2ccccc2)c2ccccc2)NC1=O)C(c1ccccc1)c1ccccc1)[C@@H](C)O` [compound 140] (Isovaleryl-ETH[Dip]PCC[Lys(Me3)][dDip]-NH2; disulfide 6-7), the DC50 was 0.01 to 0.1 µM.
On the same count and under the same terms, for `CCCCCCCCCCCCCCCC(=O)NCCCCCC(=O)NCCCC[C@@H](C(=O)N[C@H](C(=O)N[C@H](CCCCN)C(N)=O)C(c1ccccc1)c1ccccc1)N(C)C(=O)[C@@H]1CSSC[C@H](NC(=O)[C@@H]2CCCN2C(=O)[C@@H](NC(=O)[C@H](Cc2c[nH]cn2)NC(=O)[C@@H]2[C@H](O)CCN2C(=O)[C@H](CCC(=O)O)NC(=O)CC(C)C)C(c2ccccc2)c2ccccc2)C(=O)N1` [compound 174] (Isovaleryl-E[Pro(3R-OH)]H[Dip]PCC[NMeK]([Ahx-Palmitoyl])[Dip][dK]-NH2; disulfide 6-7) the value was 0.01 to 0.1 µM; for `COC(=O)CCC(CCCC(C)C)C(=O)N[C@H](C(=O)N[C@@H](Cc1c[nH]cn1)C(=O)N[C@H](C(=O)N1CCC[C@H]1C(=O)N[C@H]1CSSC[C@@H](C(=O)N[C@H](CCCCN)C(=O)N[C@H](C(=O)N[C@H](CCCCN)C(N)=O)C(c2ccccc2)c2ccccc2)NC1=O)C(c1ccccc1)c1ccccc1)[C@@H](C)O` (stereo partly drawn) [compound 135] ({Glutaryl(2-isohexyl,5-OMe)}-TH[Dip]PCC[dK][Dip][dK]-NH2; disulfide 5-6), 0.1 to 0.5 µM.

The assay is the same for the next values; noted with them: ferroportin-GFP HEK293 cells, at least 18 hours; read-out: FPN IC50.
In the case of `CCCCCCCCCCCCCCCC(=O)NCCCCCC(=O)NCCCC[C@H](NC(=O)C[C@H](Cc1ccccc1)NC(=O)[C@@H](CCCCN)NC(=O)[C@@H]1CSSC[C@H](NC(=O)[C@@H]2CCCN2C(=O)[C@@H](NC(=O)[C@H](Cc2c[nH]cn2)NC(=O)[C@@H](NC(=O)[C@H](CCC(=O)O)NC(=O)CC(C)C)[C@@H](C)O)C(c2ccccc2)c2ccccc2)C(=O)N1)C(=O)N[C@H](CCCCN)C(N)=O` [Compd 6] (Isovaleryl-ETH[Dip]PCC[dK][β3hF]K([Ahx-Palmitoyl])[dK]-NH2; disulfide 6-7), the DC50 fell in the range of 0.01 to 0.1 µM.
With `CC[C@H](C)[C@H](NC(=O)[C@@H]1CSSC[C@H](NC(=O)[C@H](Cc2c[nH]cn2)NC(=O)[C@@H](NC(=O)[C@H](CCC(=O)O)NC(=O)CC(C)C)[C@@H](C)O)C(=O)N2CCC[C@H]2C(=O)N1)C(=O)N[C@@H](CCCCNC(=O)COCCOCCNC(=O)COCCOCCNC(=O)CCCCCNC(=O)CCCCCCCCCCCCCCCCC(=O)O)C(=O)N[C@H](CC(=O)N[C@H](CCCCN)C(N)=O)Cc1ccccc1` [Compd 20] (Isovaleryl-ETHCPCIK([AEEA-AEEA-Ahx-C18 diacid])[β3hF][dK]-NH2; disulfide 4-6), the DC50 is 0.1 to 0.5 µM.
`CCCCCCCCCCCCCCCC(=O)NCCCCCC(=O)NCCCC[C@H](NC(=O)C[C@H](Cc1ccccc1)NC(=O)[C@@H]1CSSC(C)(C)[C@@H](NC(=O)CC(C)C)C(=O)N[C@@H]([C@@H](C)O)C(=O)N[C@@H](Cc2c[nH]cn2)C(=O)N[C@@H](C(c2ccccc2)c2ccccc2)C(=O)N2CCC[C@H]2C(=O)N[C@@H](C)C(=O)N[C@@H]([C@@H](C)CC)C(=O)N1)C(=O)N[C@H](CCCCN)C(N)=O` [compound 103] (Isovaleryl-[dPen]TH[Dip]PAIC[β3hF]K([Ahx-Palmitoyl])[dK]-NH2; disulfide 1-8): the DC50 lay in the range of 0.1 to 0.5 µM.
Same read-out and setting: for `CCCCCCCCCCCCCCCC(=O)NCCCCCC(=O)NCCCC[C@H](NC(=O)C[C@H](Cc1ccccc1)NC(=O)[C@@H]1CCSSC[C@H](NC(=O)CC(C)C)C(=O)N[C@@H]([C@@H](C)O)C(=O)N[C@@H](Cc2c[nH]cn2)C(=O)N[C@@H](C(c2ccccc2)c2ccccc2)C(=O)N2CCC[C@H]2C(=O)N[C@@H](C)C(=O)N[C@@H]([C@@H](C)CC)C(=O)N1)C(=O)N[C@H](CCCCN)C(N)=O` [compound 108] (Isovaleryl-CTH[Dip]PAI[hCys][β3hF]K([Ahx-Palmitoyl])[dK]-NH2; disulfide 1-8) the value was 0.01 to 0.1 µM.
Still for that read-out and setting: next, `CCCCCCCCCCCCCCCC(=O)NCCCCCC(=O)NCCCC[C@H](NC(=O)C[C@H](Cc1ccccc1)NC(=O)[C@H]1CSSC[C@@H](NC(=O)CC(C)C)C(=O)N[C@@H]([C@@H](C)O)C(=O)N[C@@H](Cc2c[nH]cn2)C(=O)N[C@@H](C(c2ccccc2)c2ccccc2)C(=O)N2CCC[C@H]2C(=O)N[C@@H](C)C(=O)N[C@@H]([C@@H](C)CC)C(=O)N1)C(=O)N[C@H](CCCCN)C(N)=O` [compound 105] (Isovaleryl-[dC]TH[Dip]PAI[dC][β3hF]K([Ahx-Palmitoyl])[dK]-NH2; disulfide 1-8): 0.01 to 0.1 µM.
With `CC[C@H](C)[C@H](NC(=O)[C@@H]1CSSC[C@H](NC(=O)[C@H](Cc2c[nH]cn2)NC(=O)[C@@H](NC(=O)[C@H](CCC(=O)O)NC(=O)CC(C)C)[C@@H](C)O)C(=O)N2CCC[C@H]2C(=O)N1)C(=O)N[C@H](CCCCN)C(=O)N[C@H](CC(=O)N[C@@H](CCCCNC(=O)COCCOCCNC(=O)COCCOCCNC(=O)CC[C@H](NC(=O)CCCCCCCCCCCCCCCCC(=O)O)C(=O)O)C(=O)N[C@H](CCCCN)C(N)=O)Cc1ccccc1` [Compd 33] (Isovaleryl-ETHCPCI[dK][β3hF]K([AEEA-AEEA-γGlu-C18 diacid])[dK]-NH2; disulfide 4-6), the DC50 is greater than 0.5 µM.
`CCCCCCCCCCCCCCCC(=O)NCCCCCC(=O)NCCCC[C@H](NC(=O)[C@@H](NC(=O)[C@@H]1CSSCC[C@H](NC(=O)CC(C)C)C(=O)N[C@@H](CCC(=O)O)C(=O)N[C@@H]([C@@H](C)O)C(=O)N[C@@H](Cc2c[nH]cn2)C(=O)N[C@@H](C(c2ccccc2)c2ccccc2)C(=O)N2CCC[C@H]2C(=O)N1)[C@@H](C)CC)C(=O)N[C@H](CC(N)=O)Cc1ccccc1` [Compd 13] (Isovaleryl-[hCys]ETH[Dip]PCIK([Ahx-Palmitoyl])[β3hF]-NH2; disulfide 1-7): the DC50 lay in the range of 0.1 to 0.5 µM.
On to `CCCCCCCCCCCCCCCC(=O)NCCCCCC(=O)NCCCC[C@H](NC(=O)C[C@H](Cc1ccccc1)NC(=O)[C@@H]1CSSC[C@H](NC(=O)[C@@H]2CCCN2C(=O)[C@@H](NC(=O)[C@H](Cc2c[nH]cn2)NC(=O)[C@@H](NC(=O)[C@H](CCC(=O)O)NC(=O)CC(C)C)[C@@H](C)O)C(c2ccccc2)c2ccccc2)C(=O)N[C@@H]([C@@H](C)CC)C(=O)N1)C(=O)N[C@H](CCCCN)C(N)=O` [Compd 7] (Isovaleryl-ETH[Dip]PCIC[β3hF]K([Ahx-Palmitoyl])[dK]-NH2; disulfide 6-8), for which the DC50 was 0.01 to 0.1 µM.

Still in this assay, the particulars now being: ferroportin-GFP internalization/degradation, HEK293 cells; Table 6E; read-out: FPN IC50.
Turning to `CC(C)CC(=O)N[C@@H](CCC(=O)O)C(=O)N[C@H](C(=O)N[C@@H](Cc1c[nH]cn1)C(=O)N[C@H](C(=O)N1CCC[C@H]1C(=O)N[C@@H]1C(=O)N[C@H](C(=O)N(C)[C@@H](CCCCNC(=O)COCCOCCNC(=O)COCCOCCNC(=O)[C@H](CN)NC(=O)CCCCCCCCCCCCCCCCC(=O)O)C(=O)N[C@H](CC(=O)N[C@H](CCCCN)C(N)=O)Cc2ccccc2)C(C)(C)SSC1(C)C)C(c1ccccc1)c1ccccc1)[C@@H](C)O` [compound 273] (Isovaleryl-ETH[Dip]P[Pen][Pen][NMeK]([AEEA-AEEA-Dap-C18 diacid])[β3hF][dK]-NH2; disulfide 6-7), the DC50 fell in the range of 0.1 to 0.5 µM.
On the same count and under the same terms, for `CC(C)CC(=O)N[C@@H](CCC(=O)O)C(=O)N[C@H](C(=O)N[C@@H](Cc1c[nH]cn1)C(=O)N[C@H](C(=O)N1CCC[C@H]1C(=O)N[C@H]1CSSC[C@@H](C(=O)N(C)[C@@H](CCCCNC(=O)COCCOCCNC(=O)COCCOCCNC(=O)[C@H](CN)NC(=O)CCCCCCCCCCCCCCCCC(=O)O)C(=O)N(C)[C@@H](Cc2ccccc2)C(=O)N(C)[C@@H](CCCCN)C(N)=O)N(C)C1=O)C(c1ccccc1)c1ccccc1)[C@@H](C)O` [compound 277] (Isovaleryl-ETH[Dip]PC[NMeC][NMeK]([AEEA-AEEA-Dap-C18 diacid])[NMeF][NMeK]-NH2; disulfide 6-7) the value was 0.01 to 0.1 µM.
Consider `CC(C)CC(=O)N[C@@H](CCC(=O)O)C(=O)N[C@H](C(=O)N[C@@H](Cc1c[nH]cn1)C(=O)N[C@H](C(=O)N1CCC[C@H]1C(=O)N[C@H]1CSSC[C@@H](C(=O)N(C)[C@@H](CCCCNC(=O)COCCOCCNC(=O)COCCOCCNC(=O)[C@H](CN)NC(=O)CCCCCCCCCCCCCCCCC(=O)O)C(=O)N[C@H](CC(=O)N(C)[C@H](CCCCN)C(N)=O)Cc2ccccc2)NC1=O)C(c1ccccc1)c1ccccc1)[C@@H](C)O` [compound 276] (Isovaleryl-ETH[Dip]PCC[NMeK]([AEEA-AEEA-Dap-C18 diacid])[β3hF][dNMeK]-NH2; disulfide 6-7), for which the DC50 was in the range of 0.01 to 0.1 µM.
As to `CC(C)CC(=O)N[C@@H](CCC(=O)O)C(=O)N[C@H](C(=O)N[C@@H](Cc1ccc(C(F)(F)F)cc1)C(=O)N[C@H](C(=O)N1CCC[C@H]1C(=O)N[C@H]1CSSC[C@@H](C(=O)N(C)[C@@H](CCCCNC(=O)COCCOCCNC(=O)COCCOCCNC(=O)[C@H](CN)NC(=O)CCCCCCCCCCCCCCCCC(=O)O)C(=O)N[C@H](CC(=O)N[C@H](CCCCN)C(N)=O)Cc2ccccc2)NC1=O)C(c1ccccc1)c1ccccc1)[C@@H](C)O` [compound 286] (Isovaleryl-ET[Phe(4-CF3)][Dip]PCC[NMeK]([AEEA-AEEA-Dap-C18 diacid])[β3hF][dK]-NH2; disulfide 6-7), the DC50 fell in the range of 0.1 to 0.5 µM.

The record behind these values is patent US20250277012A1 (Protagonist Therapeutics, Inc., priority 2021, published 2025).
